From patent US20040266871A1, “Methods for treating alzheimer's disease using quinaldoyl-amine derivatives of oxo-and hydroxy-substituted hydrocarbons” (priority 2001, published 2004) come the findings set out here.

The melting point is the temperature of the solid-liquid transition.

In turn, `CC(C)(C)OC(=O)NN(C[C@H](O)[C@H](Cc1ccccc1)NC(=O)OCc1ccccc1)C1CCCCC1` [Example 31, t-Butyl 3-cyclohexyl-3-[(2S, 3S)-2-hydroxy-3-(phenylmethoxycarbonyl)amino-4-phenylbutyl]carbazate] had a melting point of 142 to 143 °C.
